The record followed here is US10519134B2, “Pyrazole compounds and methods of making and using same” (Lundbeck La Jolla Research Center, Inc., priority 2015, dated 2019).

For experiment [1], the target named is T1, MAGL (Mus musculus, UniProt O35678).
T1 construct: Proteomes (mouse brain membrane fraction or cell lysates); from tissue; host or cells: mouse brain membrane fraction (or cell lysates)
T1 sequence (O35678 1-303): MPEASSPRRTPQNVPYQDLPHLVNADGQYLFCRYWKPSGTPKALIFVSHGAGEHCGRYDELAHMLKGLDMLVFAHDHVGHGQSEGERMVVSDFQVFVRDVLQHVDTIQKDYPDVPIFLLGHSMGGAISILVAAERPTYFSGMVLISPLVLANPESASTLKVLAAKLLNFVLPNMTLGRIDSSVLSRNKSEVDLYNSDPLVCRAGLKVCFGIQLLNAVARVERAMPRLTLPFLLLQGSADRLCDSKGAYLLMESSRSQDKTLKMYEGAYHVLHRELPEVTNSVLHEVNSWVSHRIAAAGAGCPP
Briefly: In vitro competitive activity-based protein profiling (mouse), MAGL gel band. It counts as biochemical. The conditions noted are these: for IC50: mouse; for inhibition at 1 µM: read-out: MAGL % inh. 1 μM. The method in brief: (§1)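 Residual enzyme activity is taken from in-gel fluorescence after SDS-PAGE. Proteome from mouse brain membranes or cell lysates (total protein 1.0 mg/mL) sees inhibitor for 30 min, then FP-Rh or HT-01 probe (50 μM DMSO stock) for 30 min, both steps at 37 °C.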

For another experiment, the target named is T2, FAAH (Mus musculus, UniProt O08914).
T2 construct: Proteomes (mouse brain membrane fraction or cell lysates); from tissue; host or cells: mouse brain membrane fraction (or cell lysates)
T2 sequence (O08914 1-579): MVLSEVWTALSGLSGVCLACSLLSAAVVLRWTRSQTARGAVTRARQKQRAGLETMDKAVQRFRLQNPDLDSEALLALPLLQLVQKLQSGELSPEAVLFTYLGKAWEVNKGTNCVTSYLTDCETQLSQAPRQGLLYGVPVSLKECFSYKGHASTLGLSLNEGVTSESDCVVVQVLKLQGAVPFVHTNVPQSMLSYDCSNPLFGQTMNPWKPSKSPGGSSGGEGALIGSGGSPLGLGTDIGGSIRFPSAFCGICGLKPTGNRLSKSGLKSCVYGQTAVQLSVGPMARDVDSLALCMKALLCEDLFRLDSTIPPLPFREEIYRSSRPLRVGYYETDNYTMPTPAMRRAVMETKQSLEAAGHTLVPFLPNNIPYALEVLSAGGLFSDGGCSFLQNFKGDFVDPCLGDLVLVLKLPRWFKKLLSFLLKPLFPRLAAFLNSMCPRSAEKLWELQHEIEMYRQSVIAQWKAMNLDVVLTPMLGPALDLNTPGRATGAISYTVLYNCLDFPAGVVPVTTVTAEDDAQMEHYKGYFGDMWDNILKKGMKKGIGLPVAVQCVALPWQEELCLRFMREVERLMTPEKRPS
As to the kind of experiment: In vitro competitive activity-based protein profiling (mouse), FAAH gel band. It counts as biochemical. The conditions noted are these: for IC50: mouse; for inhibition at 1 µM: read-out: FAAH % inh. 1 μM. The method in brief: as §1

Experiment [2] concerns the target T1, MAGL. Briefly: Mouse brain proteomes from inhibitor treated mice (oral gavage, sacrificed 4 h after administration). The settings on record: read-out: MAGL % inh. 5 mg/kg. The experiment is classed as in vivo. A digest of the protocol:
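Wild-type C57Bl/6J mice got compound by oral gavage in polyethylene glycol vehicle. Brain proteomes were prepared 4 h after dosing and analyzed for serine hydrolase activity.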

Usually IC50 stands for the concentration needed to halve the response being measured. Turning to `CS(=O)(=O)Nc1ccn(C(=O)N2CCN(Cc3ccc(C(F)(F)F)cc3N3CC4CCC(C3)O4)CC2)n1` [Example 130, N-(1-(4-(2-(8-oxa-3-azabicyclo[3.2.1]octan-3-yl)-4-(trifluoromethyl)benzyl)piperazine-1-carbonyl)-1H-pyrazol-3-yl) methanesulfonamide], on MAGL [1], the IC50 was no more than 100 nM and the inhibition at 1 µM is no less than 75%. In addition, at FAAH, the IC50 was 1000 to 10000 nM and the inhibition at 1 µM lay in the range of 0 to 25%. In addition, at MAGL [2], the inhibition at 5 mg/kg fell in the range of 50 to 75%.
Regarding `Cc1c(CN2CCCC23CCN(C(=O)n2ccc(NS(C)(=O)=O)n2)CC3)cccc1N1CCCCC1` [Example 142, N-(1-(1-(2-methyl-3-(piperidin-1-yl)benzyl)-1,8-diazaspiro[4.5]decane-8-carbonyl)-1H-pyrazol-3-yl) methanesulfonamide], at MAGL [1], the IC50 is no more than 100 nM and the inhibition at 1 µM was no less than 75%. In addition, on FAAH, the IC50 fell in the range of 1000 to 10000 nM and the inhibition at 1 µM lay in the range of 0 to 25%. In addition, on MAGL [2], the inhibition at 5 mg/kg fell in the range of 0 to 25%.
For `Cc1ccc(CN2CCN(C(=O)n3ccc(NS(C)(=O)=O)n3)CC2)c(N2CC3CCC(C2)O3)c1` [Example 146, N-(1-(4-(2-(8-oxa-3-azabicyclo[3.2.1]octan-3-yl)-4-methylbenzyl)piperazine-1-carbonyl)-1H-pyrazol-3-yl) methanesulfonamide], the IC50 is no more than 100 nM at MAGL [1] and 1000 to 10000 nM at FAAH. The inhibition at 1 µM on MAGL [1] was no less than 75%; on FAAH it was 0 to 25%. The inhibition at 5 mg/kg at MAGL [2] lay in the range of 25 to 50%.
With `CS(=O)(=O)Nc1ccn(C(=O)N2CCC3(CCCN3Cc3ccc(C(F)(F)F)c(Cl)c3)CC2)n1` [Example 161, N-(1-(1-(3-chloro-4-(trifluoromethyl)benzyl)-1,8-diazaspiro[4.5]decane-8-carbonyl)-1H-pyrazol-3-yl) methanesulfonamide], the inhibition at 1 µM at MAGL [1] is no less than 75%; at FAAH, 0 to 25%. In addition, the inhibition at 5 mg/kg at MAGL [2] lay within 0 to 25%.
Take `CC(=O)Nc1ccn(C(=O)N2CCN(Cc3cccc(C(F)(F)F)c3-c3nnn[nH]3)CC2)n1` [Example 223, N-(1-(4-(2-(1H-tetrazol-5-yl)-3-(trifluoromethyl)benzyl)piperazine-1-carbonyl)-1H-pyrazol-3-yl)acetamide]: the concentration for half-maximal inhibition (IC50) at MAGL [1] and on FAAH was 1000 to 10000 nM throughout. The results for the inhibition at 1 µM on MAGL [1] and at FAAH were no less than 75% and 0 to 25%, respectively. Besides, the inhibition at 5 mg/kg on MAGL [2] is 0 to 25%.
`CC(=O)Nc1ccn(C(=O)N2CCN(Cc3ccc(Cl)cc3N3CCC(C(=O)O)CC3)CC2)n1` [Example 248, 1-(2-((4-(3-acetamido-1H-pyrazole-1-carbonyl)piperazin-1-yl)methyl)-5-chlorophenyl) piperidine-4-carboxylic acid]: at MAGL [1], the 50% inhibitory concentration (IC50) was no more than 100 nM and the inhibition at 1 µM is no less than 75%. In addition, at FAAH, the IC50 is 1000 to 10000 nM and the inhibition at 1 µM lay in the range of 0 to 25%. Also, the inhibition at 5 mg/kg on MAGL [2] fell in the range of 0 to 25%.
Consider `CC(=O)Nc1ccn(C(=O)N2CCN(Cc3ccc(Cl)cc3-c3nnn[nH]3)CC2)n1` [Example 262, N-(1-(4-(4-chloro-2-(1H-tetrazol-5-yl)benzyl)piperazine-1-carbonyl)-1H-pyrazol-3-yl)acetamide], for which the IC50 at MAGL [1] is no more than 100 nM; on FAAH, 1000 to 10000 nM. The results for the inhibition at 1 µM at MAGL [1] and on FAAH were no less than 75% and 0 to 25%, respectively. The inhibition at 5 mg/kg at MAGL [2] is 0 to 25%.
On to `[2H]C([2H])([2H])C(=O)Nc1ccn(C(=O)N2CCC3(CCCN3Cc3ccc(Cl)c(C)c3)CC2)n1` [Example 286, N-(1-(1-(4-chloro-3-methylbenzyl)-1,8-diazaspiro[4.5]decane-8-carbonyl)-1H-pyrazol-3-yl)acetamide-2,2,2-d3], for which the inhibition at 1 µM is no less than 75% at MAGL [1] and 0 to 25% at FAAH. Also, on MAGL [2], the inhibition at 5 mg/kg is no less than 75%.
